We go through eight molecules from publication PMC11053944, “FRET Assays for the Identification of C. albicans HSP90-Sba1 and Human HSP90α-p23 Binding Inhibitors” (Pharmaceuticals, 2024).

Entries after “also recorded” stand apart in the source; their conditions may differ. Like-named read-outs stand apart in the source and are kept apart here.

Assay [1] concerns the target T1, C. albicans HSP90–Sba1 binding (Candida albicans, UniProt P46598).
T1 construct: made in house; host or cells: E. coli BL21(DE3)
Nature of the assay: FRET inhibitor screening assay, C. albicans HSP90-Sba1 binding. To be noted: 10 or 100 µM (Sba1 20 µM), triplicates, 3 mM ATP, 1% DMSO, 15 min 30 °C. From the text: We used the Z′ factor (Z′) to optimize the FRET assays for screening purposes. Z′ represents a simple statistical parameter for the quality assessment and optimization of HTS assays and screening assays in general. It is a measure that determines the degree of signal separation between binding and non-binding data sets. Calculation of the Z′ factor is based on the standard deviation of the individual data sets as well as their general signal separation. Values ≥ 0.5 can be classified as excellent for screening purposes. […] When the fluorescent fusion proteins of HSP90 and co-chaperones bind to each other, FRET occurs between donor and acceptor fluorophores, and the sensitized emission (EmFRET) signal increases. Consequently, the fluorescence intensity of the donor decreases (FLDD). […] To obtain an informative Z′ value, we calculated it based on at least three independent experiments amounting to 144 samples for both binding and non-binding control data sets (Figure 4B,E). […] We defined the ‘hit threshold’ as a decrease in readout signal of more than 3 standard deviations (SDs) from the mean signal of the binding control. This constitutes a common threshold for hit identification in HTS campaigns.
(§1) FRET experiments were carried out in 384-well microtiter plates (Art. No. 3766 Corning, NY, USA, or Art. No. 781906, Greiner Bio-One GmbH, Frickenhausen, Germany) containing a final volume of 20 µL and measured with a microplate reader Infinite M200Pro (Tecan, Männedorf, Switzerland). The fluorescence was measured in three channels: excitation (ex.): 488 nm/emission (em.): 525 nm (mNeonGreen fluorescence), ex.: 561 nm/em.: 610 nm (mScarlet-I fluorescence) and the FRET channel ex.: 488 nm/em.: 610 nm. The excitation and emission bandwidths were set to 9 and 20 nm, respectively. Experiments for the determination of the equilibrium dissociation constants were performed with a filter-based microplate reader Infinite F200Pro (Tecan, Männedorf, Switzerland). The fluorescence was measured in three channels using the following filters: ex.: 485 ± 20 nm/em.: 535 ± 20 nm (mNeonGreen channel), ex.: 535 ± 20 nm/em.: 612 ± 10 nm (mScarlet-I channel) and the FRET channel ex.: 485 ± 20 nm/em.: 612 ± 10 nm. FRET emission (EmFRET) was calculated according to Song et al. 2011 [81]:(1) EmFRET=FLDA−x×FLDD−(y×FLAA) where FLDA is the fluorescence signal of the FRET channel and FLDD and FLAA are fluorescence signals from the mNeonGreen and mScarlet-I channels, respectively. The correction factors x and y were calculated as follows:(2) x=FLDA/FLDD for samples containing only the donor fluorophore or fluorescent fusion proteins with mNeonGreen and (3) y=FLDA/FLAA for samples containing only the acceptor fluorophore or fluorescent fusion proteins with mScarlet-I in the same concentration as samples containing both the donor and acceptor.
For screening for the identification of ATP-competitive C. albicans HSP90 and HSP90-Sba1 binding inhibitors, 10 µL of HSP90-mNeonGreen ([…]) in HEPES buffer (40 mM HEPES/KOH pH 7.5, 20 mM KCl) was mixed with 10 µL of 200 µM compound solution in 2x reaction buffer (40 mM HEPES/KOH pH 7.5, 20 mM KCl, 10 mM MgCl2, 40 mM Na2MoO4, Triton-X 100 0.2%), 6 mM ATP, 2% DMSO, resulting […] Samples for binding control (3 mM ATP, final concentration) and non-binding control (no ATP) were prepared in the same manner without compounds. The samples were incubated for 15 min at 30 °C prior to measurement.

A further assay deals with T2, human HSP90α–p23 binding (Homo sapiens, UniProt P07900).
T2 construct: made in house; host or cells: E. coli Rosetta2(DE3) pLysS
Briefly: FRET inhibitor screening assay, human HSP90α-p23 binding. To be noted: 10 or 100 µM, triplicates, 3 mM ATP, 1% DMSO, 15 min 37 °C. The source says:
We used the Z′ factor (Z′) to optimize the FRET assays for screening purposes. Z′ represents a simple statistical parameter for the quality assessment and optimization of HTS assays and screening assays in general. It is a measure that determines the degree of signal separation between binding and non-binding data sets. Calculation of the Z′ factor is based on the standard deviation of the individual data sets as well as their general signal separation. Values ≥ 0.5 can be classified as excellent for screening purposes. […] When the fluorescent fusion proteins of HSP90 and co-chaperones bind to each other, FRET occurs between donor and acceptor fluorophores, and the sensitized emission (EmFRET) signal increases. Consequently, the fluorescence intensity of the donor decreases (FLDD). […] We defined the ‘hit threshold’ as a decrease in readout signal of more than 3 standard deviations (SDs) from the mean signal of the binding control. This constitutes a common threshold for hit identification in HTS campaigns.
The excitation and emission bandwidths were set to 9 and 20 nm, respectively. Experiments for the determination of the equilibrium dissociation constants were performed with a filter-based microplate reader Infinite F200Pro (Tecan, Männedorf, Switzerland). […] The correction factors x and y were calculated as follows:(2) x=FLDA/FLDD for samples containing only the donor fluorophore or fluorescent fusion proteins with mNeonGreen and (3) y=FLDA/FLAA for samples containing only the acceptor fluorophore or fluorescent fusion proteins with mScarlet-I in the same concentration as samples containing both the donor and acceptor.
For screening for the identification of ATP-competitive C. albicans HSP90 and HSP90-Sba1 binding inhibitors, 10 µL of HSP90-mNeonGreen (2 µM) and Sba1-mScarlet-I (4 µM) in HEPES buffer (40 mM HEPES/KOH pH 7.5, 20 mM KCl) was mixed with 10 µL of 200 µM compound solution in 2x reaction buffer (40 mM HEPES/KOH pH 7.5, 20 mM KCl, 10 mM MgCl2, 40 mM Na2MoO4, Triton-X 100 0.2%), 6 mM ATP, 2% DMSO, resulting ultimately in constant HSP90-mNeonGreen concentrations of 1 µM and Sba1-mScarlet-I 2 µM in reaction buffer. Samples for binding control (3 mM ATP, final concentration) and non-binding control (no ATP) were prepared in the same manner without compounds. The samples were incubated for 15 min at 30 °C prior to measurement. The assay for the human HSP90α–p23 binding inhibitor identification was performed analogously, with the exception that samples were incubated for 15 min at 37 °C prior to measurement. Since binding samples show both a high EmFRET as well as a reduction in donor emission (FLDD), we calculated the quotient (EmFRET/FLDD) to derive an improved signal separation and robustness. The nucleoside-mimetics library was obtained from Enamine (catalog No. NML-320-X-20, Enamine Ltd., Kyiv, Ukraine). Z′ and Z factors were calculated based on Zhang et al..

The subject of another assay is HSP90 - Sba1/p23 binding. The note with it: according to literature, cited from earlier work.
For assay [2], the target named is T3, C. albicans HSP90-mNeonGreen–Sba1-mScarlet-I binding (Candida albicans, UniProt P46598, E36A).
T3 construct: made in house; host or cells: E. coli BL21(DE3)
To be noted: 20 µM added; 1 µM HSP90-mNeonGreen, 2 µM Sba1-mScarlet-I, 5 mM ATP. The procedure: (§2) In this investigation, 1 µM HSP90-mNeonGreen was incubated with 2 µM Sba1-mScarlet-I in reaction buffer containing 5 mM ATP either alone (UC) or with the addition of 20 µM Sba1. As a negative control, samples containing 20 µM bovine serum albumin (BSA) were used.
as §1
All experiments were carried out in reaction buffer (40 mM HEPES/KOH pH 7.5, 20 mM KCl, 5 mM MgCl2, 20 mM Na2MoO4, Triton-X 100 0.1%). HEPES and KCl were purchased from AppliChem, Darmstadt, Germany. […]

The target of assay [3] is T4, human HSP90α-mNeonGreen–p23-mScarlet-I binding (Homo sapiens, UniProt P07900, E47A).
T4 construct: made in house; host or cells: E. coli Rosetta2(DE3) pLysS
Briefly: FRET characterization of model inhibitors and ATP on human HSP90α-p23 binding. The note with it: 20 µM added; 1 µM HSP90α-mNeonGreen, 2 µM p23-mScarlet-I, 5 mM ATP. Here is the method: as §2, §1
All experiments were carried out in reaction buffer (40 mM HEPES/KOH pH 7.5, 20 mM KCl, 5 mM MgCl2, 20 mM Na2MoO4, Triton-X 100 0.1%). HEPES and KCl were purchased from AppliChem, Darmstadt, Germany. KOH and MgCl2 were obtained from VWR Chemicals, Darmstadt, Germany. Na2MoO4 was from Merck, Darmstadt, Germany. Triton-X 100 was purchased from Serva, Heidelberg, Germany.
For C. albicans Sba1 competition experiments for HSP90-mNeonGreen–Sba1-mScarlet-I binding, 1 µM HSP90-mNeonGreen and 1 µM Sba1-mScarlet-I were incubated with varying concentrations of Sba1 in a range of 0–25,000 nM (lowest non-zero concentration 12 nM) in reaction buffer containing 5 mM ATP. The experiment was performed twice in nonaplicates. For human p23 competition experiments for HSP90α-mNeonGreen–p23-mScarlet-I binding, 1 µM HSP90α-mNeonGreen and 1 µM p23-mScarlet-I were incubated with varying concentrations of p23 in a range of 0–50 000 nM (lowest non-zero concentration 23 nM) in reaction buffer containing 5 mM ATP. The experiment was performed twice in hexaplicates. […] The experiment was performed thrice in triplicates. […] The IC50,rel values were calculated using the equation log (inhibitor) vs. response-variable slope (four parameters) in GraphPad Prism 5. Ki values for inhibition of HSP90-mNeonGreen–Sba1-mScarlet-I/p23-mScarlet-I binding by non-labeled Sba1/p23 were calculated with One Site—Fit Ki in GraphPad Prism 5. […] The EC50,rel values were calculated using the log (agonist) vs. response-variable slope (four parameters) equation in GraphPad Prism 5.

T1 sequence (P46598 whole entry): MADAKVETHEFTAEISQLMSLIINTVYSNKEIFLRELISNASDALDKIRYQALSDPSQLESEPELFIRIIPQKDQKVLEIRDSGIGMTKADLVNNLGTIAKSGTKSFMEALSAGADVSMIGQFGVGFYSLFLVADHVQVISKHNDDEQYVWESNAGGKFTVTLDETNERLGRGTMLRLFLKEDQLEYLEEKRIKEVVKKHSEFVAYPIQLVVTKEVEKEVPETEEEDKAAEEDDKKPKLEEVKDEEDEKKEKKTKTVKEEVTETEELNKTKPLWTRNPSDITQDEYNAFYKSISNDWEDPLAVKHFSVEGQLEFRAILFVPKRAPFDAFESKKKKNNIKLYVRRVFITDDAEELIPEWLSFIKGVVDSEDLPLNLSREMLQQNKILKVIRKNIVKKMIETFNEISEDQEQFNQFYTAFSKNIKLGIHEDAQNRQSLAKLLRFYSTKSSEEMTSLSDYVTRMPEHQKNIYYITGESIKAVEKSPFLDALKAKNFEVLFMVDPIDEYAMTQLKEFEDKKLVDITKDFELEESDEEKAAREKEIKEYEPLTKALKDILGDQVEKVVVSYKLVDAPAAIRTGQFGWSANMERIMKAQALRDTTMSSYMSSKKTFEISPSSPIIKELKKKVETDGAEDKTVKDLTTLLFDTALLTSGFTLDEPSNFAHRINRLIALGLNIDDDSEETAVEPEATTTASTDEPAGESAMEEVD

Take `COc1cc(C2Oc3cc([C@H]4Oc5cc(O)cc(O)c5C(=O)[C@@H]4O)ccc3OC2CO)ccc1O` (stereo partly drawn) [silibinin]: the figures for the “hit identification (EmFRET/FLDD decrease of more than 3 SDs from binding control mean)” value (in assay [1]; on human HSP90α–p23 binding) were “do not show an effect; also recorded: show no influence” and “show no influence”, respectively.

For the molecule `CCNC(=O)c1noc(-c2cc(C(C)C)c(O)cc2O)c1-c1ccc(CN2CCOCC2)cc1` [NVP-AUY922, luminespib], the “hit identification (EmFRET/FLDD decrease of more than 3 SDs from binding control mean)” value is recorded as “reliably identified as hits” in assay [1] and “reliably identified as disrupting HSP90-Sba1 binding” in assay [1] (listed as luminespib). In addition, the “Influence on p23/Sba1 binding” value in the assay with HSP90 - Sba1/p23 binding is “Yes”.

As for bovine serum albumin [BSA], the results for the “effect on FRET emission (EmFRET) versus untreated control” value in assay [2] and in assay [3] were “did not show a significant influence; also recorded: no significant (n.s.) reduction” and “did not show a significant influence”, respectively.

For `O=C(O[C@@H]1Cc2c(O)cc(O)cc2O[C@@H]1c1cc(O)c(O)c(O)c1)c1cc(O)c(O)c(O)c1` [EGCG, (−)-Epigallocatechin-3-gallate], the “hit identification (EmFRET/FLDD decrease of more than 3 SDs from binding control mean)” value in assay [1] is listed as “pan-assay interfering compound (PAIN)”; at human HSP90α–p23 binding, “strong decrease in FRET emission; also recorded: pan-assay interfering compound (PAIN)”. For the same molecule, the “Influence on p23/Sba1 binding” value in the assay with HSP90 - Sba1/p23 binding is “Yes”.

In the case of `COc1cc2c(cc1OC)[C@@H]1C(=O)c3ccc4c(c3O[C@@H]1CO2)C=CC(C)(C)O4` [deguelin], the “hit identification (EmFRET/FLDD decrease of more than 3 SDs from binding control mean)” value in assay [1] is listed as “do not show an effect; also recorded: show no influence”; at human HSP90α–p23 binding, “show no influence”.

For the molecule `CC1=C(CO)C(=O)O[C@@H]([C@@H](C)[C@H]2CC[C@H]3[C@@H]4C[C@H]5O[C@]56[C@@H](O)C=CC(=O)[C@]6(C)[C@H]4CC[C@]23C)C1` [withaferin A], the “hit identification (EmFRET/FLDD decrease of more than 3 SDs from binding control mean)” value in assay [1] is reported as “do not show an effect; also recorded: show no influence”; at human HSP90α–p23 binding, “show no influence”. Besides, the results for the “Influence on p23/Sba1 binding” value in the assay on HSP90 - Sba1/p23 binding and in the assay on HSP90 - Sba1/p23 binding (listed as Withaferin A) were “not influence” and “No”, respectively.

`CC1=C(O)C(=O)C=C2C1=CC=C1[C@@]2(C)CC[C@@]2(C)[C@@H]3C[C@](C)(C(=O)O)CC[C@]3(C)CC[C@]12C` [celastrol]: the “hit identification (EmFRET/FLDD decrease of more than 3 SDs from binding control mean)” value (in assay [1]; at human HSP90α–p23 binding) was “show no influence” in each case. In addition, the “Influence on p23/Sba1 binding” value in the assay on HSP90 - Sba1/p23 binding is “No and not influence”.

On to `C[C@@H]1C[C@H]2O[C@@H]2/C=C\C=C\C(=O)Cc2c(Cl)c(O)cc(O)c2C(=O)O1` [radicicol], for which the “hit identification (EmFRET/FLDD decrease of more than 3 SDs from binding control mean)” value in assay [1] was “reliably identified as disrupting HSP90-Sba1 binding; also recorded: reliably identified as hits”. Also, the “Influence on p23/Sba1 binding” value with HSP90 - Sba1/p23 binding is on record as “Yes”.
